Measured values from patent publication US20250179047A1, “5-[7-(3,4-DIHYDRO-1H-ISOQUINOLINE-2-CARBONYL)-1,2,3,4 TETRAHYDROISOQUINOLIN-6-YL]-1H-PYRROLE-3-CARBOXAMIDE DERIVATIVES, PHARMACEUTICAL COMPOSITIONS CONTAINING THEM AND THEIR USES AS PRO-APOPTOTIC AGENTS” (LES LABORATOIRES SERVIER, priority 2022, published 2025).
pKi: −log10 of the molar value.

Experiments:
KMS-12-PE Bcl-2 G101V = test: In vitro cytotoxicity CellTiter-Glo 48 h, KMS-12-PE Bcl-2 G101V; type: cell-based; details: for Ratio (G101V/WT): C50 KMS-12-PE Bcl-2 G101V over C50 KMS-12-PE Bcl-2 WT; for IC50: Homo sapiens, KMS-12-PE, 48 h, CellTiter-Glo, C50 = concentration needed to reach 50% of the cellular viability
Summary of the method: (§1)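 Transduce KMS-12-PE with Bcl-2 WT or G101V lentivirus, then FACS-sort RFP-positive cells. Add compounds in an 11-point dilution series and incubate 48 h at 37 °C. Measure ATP-based luminescence with CellTiter-Glo and derive C50 (50% viability).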

BCL2 WT = BCL2 WT (Homo sapiens (Human), UniProt P10415); test: TR-FRET competitive binding assay, BCL2 WT; details: Ki determined from IC50, read-out: TR_FRET EKI_Bcl2 WT
Summary of the method: (§2)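 Terbium-labelled N-terminal Halo-fusion BCL2 or BCLXL (E. coli), 0.5 nM, competed against fluorescein-labelled PUMA peptide (2 or 20 nM) for 2 h at 23° C in 50 mM Hepes pH 7.5, 150 mM NaCl, 5% DMSO. TR-FRET 520/495 nm ratio gave IC50 by four-parameter fit; Ki derived from IC50.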

BCL2 G101V [1] = test: TR-FRET competitive binding assay, BCL2 G101V; parameters: species or system human; details: ratio Ki BCL2 G101V / Ki BCL2 WT
Summary of the method: as §2

BCL2 G101V [2] = target: BCL2 G101V (Homo sapiens, UniProt P10415, G101V); test: TR-FRET competitive binding assay, BCL2 G101V; details: BCL2 G101V; Ki determined from IC50; read-out: TR_FRET EKI_Bcl2 G101V
Summary of the method: as §2

BCL2 F104I = BCL2 F104I (Homo sapiens, UniProt P10415, F104I); test: TR-FRET competitive binding assay, BCL2 F104I; details: Ki determined from IC50, read-out: TR_FRET EKI_Bcl2 F104I
Description: The relative binding potency of each compound was determined in a competitive binding assay using time resolved-fluorescence resonance energy transfer (TR-FRET). The method utilised a fluorescein labelled peptide derived from PUMA (5Flu-Ahx-[…]-NH2 wherein Ahx means 6-hexanoic acid monomer and the amino acid sequence is referred to as SEQ ID:01) which binds to a terbium labelled BCL2 or BCLXL protein. The degree of binding or corresponding compound inhibition can be quantified by the TR-FRET signal between the terbium donor and fluorescein acceptor.
The human BCL2_wild-type (also named BCL2_wt), BCL2_G101V mutant and BCLXL_wild-type were E. coli expressed as a N-terminal Halo-fusion proteins and singly labelled with Terbium on the Halo protein to afford the following amino acid sequences:
wherein the BCL2(1-207) sequence corresponds to UniProtKB® primary accession number P10415 and the BCLXL(2-196) sequence corresponds to UniProtKB® primary accession number Q07817-1.
The assay was performed in a 40 μL volume in white 384-standard well plates (Corning #3574). An 11-point serial dilution of each compound was prepared in DMSO and transferred directly to plate followed by addition of fluorescein labelled peptide and lastly protein. Final assay conditions were 0.5 nM BCL2_wt, BCL2_G101V, BCL2_D103Y, BCL2_F104I, BCL2_D111A or BCLXL_wt, 2 or 20 nM fluorescein labelled peptide, 50 mM Hepes pH 7.5, 150 mM NaCl, 0.5 mM TCEP (Tris(2-carboxyethyl)phosphine), 0.05% Tween 20, 5% DMSO. The mixture was incubated for 2 hours at 23° C.
TR-FRET measurements were performed on a Biotek Synergy Neo plate reader. TR-FRET was measured by excitation of the Terbium-donor at 340 nm and subsequent (delay time 100 μs) measurement of terbium and fluorescein emission at 495 nm and 520 nm, respectively, over a collection time of 300 μs. The TR-FRET signal was calculated as the emission-ratio at 520 nm over 495 nm.
The TR-FRET ratio readout for test compounds was normalized against 0% inhibition controls wells and 100% inhibition control wells. Test compound potency (IC50) was estimated by nonlinear regression using the sigmoidal dose-response (variable slope) using Xlfit 4 (IDBS, Guildford, Surrey, UK, model 205). Were the IC50 could not be determined the % inhibition at the highest tested concentration is given.
y=(A+((B−A)/(1+((C/x)^D))))
where y is the normalized TR-TRET ratio measurement for a given concentration of test compound, x is the concentration of test compound, A is the estimated efficacy (% inhibition) at infinite compound dilution, and B is the maximal efficacy (% inhibition). C is the IC50 value and D is the Hill slope coefficient.
The K1 values were determined from the IC50 values according to Cer et al, Nucleic Acids Res, 2009, July 1; 37 (WebServer issue): W441-W445.

KMS-12-PE Bcl-2 WT = test: In vitro cytotoxicity CellTiter-Glo 48 h, KMS-12-PE Bcl-2 WT; type: cell-based; details: Homo sapiens, KMS-12-PE, C50 = concentration needed to reach 50% of the cellular viability
Summary of the method: as §1

BCLXL WT = BCLXL WT (Homo sapiens (Human), UniProt Q07817); test: TR-FRET competitive binding assay, BCLXL WT; details: for pKi: BCLXL WT, Ki determined from IC50, read-out: TR_FRET EKI BclxL; for TR_FRET EKI BCLxL/WT selectivty ratio: ratio Ki BCLxL / Ki BCL2 WT
Summary of the method: as §2

BCL2 D103Y = BCL2 D103Y (Homo sapiens, UniProt P10415, D103Y); test: TR-FRET competitive binding assay, BCL2 D103Y; details: Ki determined from IC50, read-out: TR_FRET EKI_Bcl2 D103Y
Summary of the method: as §2

BCLXL WT, sequence (Q07817 other isoform, or with tags, fused parts or gaps): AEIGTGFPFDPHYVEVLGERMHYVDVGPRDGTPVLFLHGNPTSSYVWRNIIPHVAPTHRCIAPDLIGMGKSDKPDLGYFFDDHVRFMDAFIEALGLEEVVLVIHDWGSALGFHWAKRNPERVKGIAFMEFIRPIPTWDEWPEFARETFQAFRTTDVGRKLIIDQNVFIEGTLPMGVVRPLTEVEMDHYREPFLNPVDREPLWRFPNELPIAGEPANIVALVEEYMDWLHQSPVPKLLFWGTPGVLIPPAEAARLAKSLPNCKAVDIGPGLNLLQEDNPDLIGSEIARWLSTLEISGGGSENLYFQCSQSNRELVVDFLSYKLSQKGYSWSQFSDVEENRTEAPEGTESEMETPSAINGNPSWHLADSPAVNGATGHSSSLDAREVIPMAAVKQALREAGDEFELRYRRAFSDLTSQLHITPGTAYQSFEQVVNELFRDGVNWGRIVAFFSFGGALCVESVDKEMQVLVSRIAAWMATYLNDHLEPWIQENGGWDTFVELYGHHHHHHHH

Row | SMILES | pKi (BCL2 WT) | TR_FRET EKI G101V/WT selectivty ratio (BCL2 G101V [1]) | pKi (BCL2 G101V [2]) | pKi (BCL2 F104I) | pKi (BCLXL WT) | TR_FRET EKI BCLxL/WT selectivty ratio (BCLXL WT) | pKi (BCL2 D103Y) | Ratio (G101V/WT) (KMS-12-PE Bcl-2 G101V) | IC50 (KMS-12-PE Bcl-2 G101V) [µM] | IC50 (KMS-12-PE Bcl-2 WT) [µM]
1 | Cc1c(N(C(=O)c2cc(-c3cc4c(cc3C(=O)N3Cc5ccccc5C[C@H]3C)CN(C(=O)COc3ccccc3)CC4)n(C)c2C)c2ccc(O)cc2)cc(C#N)n1C [Example 2, N-(5-cyano-1,2-dimethyl-1H-pyrrol-3-yl)-N-(4-hydroxyphenyl)-1,2-dimethyl-5-{7-[(3R)-3-methyl-1,2,3,4-tetrahydroisoquinoline-2-carbonyl]-2-(2-phenoxyacetyl)-1,2,3,4-tetrahydroisoquinolin-6-yl}-1H-pyrrole-3-carboxamide] | 9.77 | 3.0 | 9.30 | 8.51 | 8.68 | 12.7 | 8.96 | 5.04 | 0.02 | 0.004
2 | Cc1c(N(C(=O)c2cc(-c3cc4c(cc3C(=O)N3Cc5ccccc5C[C@H]3C)CN(C(=O)Cc3cccc(N5CCN(C)CC5)c3)CC4)n(C)c2C)c2ccccc2)cc(C#N)n1C [Example 3, N-(5-cyano-1,2-dimethylpyrrol-3-yl)-1,2-dimethyl-5-(7-{[(3R)-3-methyl-3,4-dihydro-1H-isoquinolin-2-yl]carbonyl}-2-{2-[3-(4-methylpiperazin-1-yl)phenyl]acetyl}-3,4-dihydro-1H-isoquinolin-6-yl)-N-phenylpyrrole-3-carboxamide] | 10.52 | 11.7 | 9.40 | 8.78 | 8.89 | 43.3 | 9.92 | 9.44 | 0.051 | 0.0054
3 | COc1cccc(CC(=O)N2CCc3cc(-c4cc(C(=O)N(c5ccc(O)cc5)c5cc(C#N)n(C)c5C)c(C)n4C)c(C(=O)N4Cc5ccccc5C[C@H]4C)cc3C2)c1 [Example 7, N-(5-cyano-1,2-dimethyl-1H-pyrrol-3-yl)-N-(4-hydroxyphenyl)-5-{2-[2-(3-methoxyphenyl)acetyl]-7-[(3R)-3-methyl-1,2,3,4-tetrahydroisoquinoline-2-carbonyl]-1,2,3,4-tetrahydroisoquinolin-6-yl}-1,2-dimethyl-1H-pyrrole-3-carboxamide] | 9.85 | 5.7 | 9.10 | 8.59 | – | – | 9.06 | 12.2 | 0.0713 | 0.0058
4 | Cc1c(N(C(=O)c2cc(-c3cc4c(cc3C(=O)N3Cc5ccccc5C[C@H]3C)CN(C(=O)Cc3cccc(N5CCN6CCOC[C@@H]6C5)c3)CC4)n(C)c2C)c2ccccc2)cc(C#N)n1C [Example 8, 5-[2-(2-{3-[(9aS)-hexahydro-1H-piperazino[2,1-c]morpholin-8-yl]phenyl}acetyl)-7-{[(3R)-3-methyl-3,4-dihydro-1H-isoquinolin-2-yl]carbonyl}-3,4-dihydro-1H-isoquinolin-6-yl]-N-(5-cyano-1,2-dimethylpyrrol-3-yl)-1,2-dimethyl-N-phenylpyrrole-3-carboxamide] | 10.22 | 20.3 | 8.92 | 8.46 | 8.55 | 47.46 | – | 27.6 | 0.0727 | 0.0026
5 | Cc1cc(O)ccc1N(C(=O)c1cc(-c2cc3c(cc2C(=O)N2Cc4ccccc4C[C@H]2C)CN(C(=O)Cc2ccccc2)CC3)n(C)c1C)c1cc(C#N)n(C)c1C [Example 9, N-(5-cyano-1,2-dimethyl-1H-pyrrol-3-yl)-N-(4-hydroxy-2-methylphenyl)-1,2-dimethyl-5-{7-[(3R)-3-methyl-1,2,3,4-tetrahydroisoquinoline-2-carbonyl]-2-(2-phenylacetyl)-1,2,3,4-tetrahydroisoquinolin-6-yl}-1H-pyrrole-3-carboxamide] | 9.32 | 5.8 | 8.55 | 7.75 | – | – | 8.90 | 7.01 | 0.178 | 0.0254

The next lines start with results.

Row | pKi (BCL2 WT) | TR_FRET EKI G101V/WT selectivty ratio (BCL2 G101V [1]) | pKi (BCL2 G101V [2]) | pKi (BCL2 F104I) | pKi (BCLXL WT) | TR_FRET EKI BCLxL/WT selectivty ratio (BCLXL WT) | pKi (BCL2 D103Y) | SMILES | Ratio (G101V/WT) (KMS-12-PE Bcl-2 G101V) | IC50 (KMS-12-PE Bcl-2 G101V) [µM] | IC50 (KMS-12-PE Bcl-2 WT) [µM]
6 | 9.47 | 6.5 | 8.66 | 8.21 | – | – | – | Cc1cccc(CC(=O)N2CCc3cc(-c4cc(C(=O)N(c5ccc(O)cc5)c5cc(C#N)n(C)c5C)c(C)n4C)c(C(=O)N4Cc5ccccc5C[C@H]4C)cc3C2)c1 [Example 1, N-(5-cyano-1,2-dimethyl-1H-pyrrol-3-yl)-N-(4-hydroxyphenyl)-1,2-dimethyl-5-{7-[(3R)-3-methyl-1,2,3,4-tetrahydroisoquinoline-2-carbonyl]-2-[2-(3-methylphenyl)acetyl]-1,2,3,4-tetrahydroisoquinolin-6-yl}-1H-pyrrole-3-carboxamide] | 8.92 | 0.0776 | 0.0087
7 | 9.96 | 30.2 | 8.49 | 7.93 | – | – | – | Cc1c(C(=O)N(c2ccccc2)c2cc(C#N)n(CCO)c2C)cc(-c2cc3c(cc2C(=O)N2Cc4ccccc4C[C@H]2C)CN(C(=O)Cc2ccccc2)CC3)n1C [Example 4, N-[5-cyano-1-(2-hydroxyethyl)-2-methyl-pyrrol-3-yl]-1,2-dimethyl-5-[7-[(3R)-3-methyl-3,4-dihydro-1H-isoquinoline-2-carbonyl]-2-(2-phenylacetyl)-3,4-dihydro-1H-isoquinolin-6-yl]-N-phenyl-pyrrole-3-carboxamide] | 25.9 | 0.124 | 0.0048
8 | 9.74 | 7.3 | 8.89 | 8.35 | – | – | – | Cc1c(N(C(=O)c2cc(-c3cc4c(cc3C(=O)N3Cc5ccccc5C[C@H]3C)CN(C(=O)Cc3ccc(F)cc3)CC4)n(C)c2C)c2ccc(O)cc2)cc(C#N)n1C [Example 5, N-(5-cyano-1,2-dimethyl-1H-pyrrol-3-yl)-5-{2-[2-(4-fluorophenyl)acetyl]-7-[(3R)-3-methyl-1,2,3,4-tetrahydroisoquinoline-2-carbonyl]-1,2,3,4-tetrahydroisoquinolin-6-yl}-N-(4-hydroxyphenyl)-1,2-dimethyl-1H-pyrrole-3-carboxamide] | 4.98 | 0.0285 | 0.0057
